Patent publication US10106538B2, “Inhibitors of protein kinases” (PRINCETON DRUG DISCOVERY INC, priority 2015, dated 2018)

Experiments:
Experiment in all cases: Off-chip Mobility Shift Assay (MSA) kinase inhibition
Assay type in all cases: biochemical
AKT1 = molecular target: T1, AKT1 (Homo sapiens, UniProt P31749); conditions: inhibitor concentration 0.1 μM
T1 construct: purchased Carna Biosciences
Method in brief: (§1)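 Off-chip mobility shift read-out of kinase activity. Buffer: 20 mM HEPES pH 7.5, 0.01% Triton X100, 2 mM DTT; compound, substrate/ATP/metal and kinase incubated 1 or 5 h at RT.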

AurA = molecular target: T2, AurA (Homo sapiens, UniProt O14965); conditions: for inhibition at 0.1 µM: inhibitor concentration 0.1 μM
T2 construct: purchased Carna Biosciences
T2 sequence (O14965 1-403): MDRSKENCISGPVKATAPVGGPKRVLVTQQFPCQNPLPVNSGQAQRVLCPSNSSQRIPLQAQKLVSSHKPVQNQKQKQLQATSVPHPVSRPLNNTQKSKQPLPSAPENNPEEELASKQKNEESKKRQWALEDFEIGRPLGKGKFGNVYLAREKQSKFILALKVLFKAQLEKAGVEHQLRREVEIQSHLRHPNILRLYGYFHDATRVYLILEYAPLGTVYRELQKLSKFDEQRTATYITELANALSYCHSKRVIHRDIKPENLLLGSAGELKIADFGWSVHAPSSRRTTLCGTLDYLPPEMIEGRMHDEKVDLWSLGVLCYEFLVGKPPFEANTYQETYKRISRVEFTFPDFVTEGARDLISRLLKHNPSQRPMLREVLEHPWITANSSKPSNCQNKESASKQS
Method in brief: as §1

AurB = molecular target: T3, AurB (Homo sapiens, UniProt Q96GD4); conditions: inhibitor concentration 0.1 μM
T3 construct: purchased Carna Biosciences, Inc
Method in brief: as §1

Erk1 = molecular target: T4, Erk1 (Homo sapiens, UniProt P27361); conditions: for inhibition at 0.1 µM: inhibitor concentration 0.1 μM
T4 construct: purchased Carna Biosciences
T4 sequence (P27361 whole entry): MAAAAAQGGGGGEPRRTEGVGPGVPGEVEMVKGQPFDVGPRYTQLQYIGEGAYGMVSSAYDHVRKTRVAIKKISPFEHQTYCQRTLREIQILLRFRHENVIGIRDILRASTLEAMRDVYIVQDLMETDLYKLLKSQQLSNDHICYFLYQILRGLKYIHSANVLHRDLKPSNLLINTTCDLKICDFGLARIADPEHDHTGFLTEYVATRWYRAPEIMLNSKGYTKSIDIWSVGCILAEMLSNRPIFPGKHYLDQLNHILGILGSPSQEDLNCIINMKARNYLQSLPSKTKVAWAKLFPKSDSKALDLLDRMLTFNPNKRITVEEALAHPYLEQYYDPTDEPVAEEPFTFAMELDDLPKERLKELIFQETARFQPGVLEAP
Method in brief: as §1

Erk2 = molecular target: T5, Erk2 (Homo sapiens, UniProt P28482); conditions: for inhibition at 0.1 µM: inhibitor concentration 0.1 μM
T5 construct: purchased Carna Biosciences
Method in brief: as §1

FGFR3 = molecular target: T6, FGFR3 (Homo sapiens, UniProt P22607); conditions: for inhibition at 0.1 µM: inhibitor concentration 0.1 μM
T6 construct: purchased Carna Biosciences
Method in brief: as §1

FGR = molecular target: T7, FGR (Homo sapiens, UniProt P09769); conditions: for inhibition at 0.1 µM: inhibitor concentration 0.1 μM
T7 construct: purchased Carna Biosciences
T7 sequence (P09769 whole entry): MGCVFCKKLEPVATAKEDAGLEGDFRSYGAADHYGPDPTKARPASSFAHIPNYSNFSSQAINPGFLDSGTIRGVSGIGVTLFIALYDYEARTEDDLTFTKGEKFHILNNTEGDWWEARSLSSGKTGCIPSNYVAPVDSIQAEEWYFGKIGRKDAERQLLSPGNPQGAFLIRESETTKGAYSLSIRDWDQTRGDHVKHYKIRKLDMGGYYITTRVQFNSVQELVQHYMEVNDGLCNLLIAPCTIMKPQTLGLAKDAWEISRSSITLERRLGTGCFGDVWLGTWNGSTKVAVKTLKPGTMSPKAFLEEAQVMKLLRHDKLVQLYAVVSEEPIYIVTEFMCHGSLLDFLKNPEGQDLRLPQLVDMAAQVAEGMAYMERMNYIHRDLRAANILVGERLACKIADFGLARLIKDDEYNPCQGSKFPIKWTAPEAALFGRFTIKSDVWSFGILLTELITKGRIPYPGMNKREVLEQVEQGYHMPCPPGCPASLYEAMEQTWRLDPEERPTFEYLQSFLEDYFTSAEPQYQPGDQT
Method in brief: as §1

FLT3 = molecular target: T8, FLT3 (Homo sapiens, UniProt P36888); conditions: for inhibition at 0.1 µM: inhibitor concentration 0.1 μM
T8 construct: purchased Carna Biosciences
T8 sequence (P36888 27-993): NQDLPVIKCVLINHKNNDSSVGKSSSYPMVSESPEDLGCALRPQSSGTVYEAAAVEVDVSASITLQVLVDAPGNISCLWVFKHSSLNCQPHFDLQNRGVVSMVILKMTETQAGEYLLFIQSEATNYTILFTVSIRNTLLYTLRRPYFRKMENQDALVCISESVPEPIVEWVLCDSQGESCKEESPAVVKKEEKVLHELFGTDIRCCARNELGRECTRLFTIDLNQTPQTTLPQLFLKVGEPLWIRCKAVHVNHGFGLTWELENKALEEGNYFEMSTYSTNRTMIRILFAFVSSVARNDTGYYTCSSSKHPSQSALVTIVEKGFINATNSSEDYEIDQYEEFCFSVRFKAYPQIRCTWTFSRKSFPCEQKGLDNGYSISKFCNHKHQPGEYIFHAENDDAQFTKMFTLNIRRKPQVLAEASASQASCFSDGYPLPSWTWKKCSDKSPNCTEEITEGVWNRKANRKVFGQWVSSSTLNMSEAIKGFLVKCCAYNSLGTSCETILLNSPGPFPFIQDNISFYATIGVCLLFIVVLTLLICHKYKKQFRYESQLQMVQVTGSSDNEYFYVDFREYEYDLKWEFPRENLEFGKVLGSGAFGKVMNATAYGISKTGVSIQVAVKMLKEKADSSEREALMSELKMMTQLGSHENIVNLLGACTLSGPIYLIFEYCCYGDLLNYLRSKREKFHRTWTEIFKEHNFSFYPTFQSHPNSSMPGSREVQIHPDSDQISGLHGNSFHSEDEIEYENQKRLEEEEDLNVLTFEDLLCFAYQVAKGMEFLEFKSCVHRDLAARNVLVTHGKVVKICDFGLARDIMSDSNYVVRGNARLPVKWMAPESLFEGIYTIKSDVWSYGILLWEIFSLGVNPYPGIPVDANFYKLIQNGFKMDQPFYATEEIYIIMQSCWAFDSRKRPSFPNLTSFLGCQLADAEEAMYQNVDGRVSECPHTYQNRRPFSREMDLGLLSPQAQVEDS
Method in brief: as §1

HER4 = molecular target: T9, HER4 (Homo sapiens, UniProt Q15303); conditions: for inhibition at 0.1 µM: inhibitor concentration 0.1 μM
T9 construct: purchased Carna Biosciences
Method in brief: as §1

KIT(T670I) = molecular target: T10, KIT(T670I) (Homo sapiens, UniProt P10721, T670I); conditions: for inhibition at 0.1 µM: inhibitor concentration 0.1 μM
T10 construct: purchased Carna Biosciences
T10 sequence (P10721 26-976 T670I): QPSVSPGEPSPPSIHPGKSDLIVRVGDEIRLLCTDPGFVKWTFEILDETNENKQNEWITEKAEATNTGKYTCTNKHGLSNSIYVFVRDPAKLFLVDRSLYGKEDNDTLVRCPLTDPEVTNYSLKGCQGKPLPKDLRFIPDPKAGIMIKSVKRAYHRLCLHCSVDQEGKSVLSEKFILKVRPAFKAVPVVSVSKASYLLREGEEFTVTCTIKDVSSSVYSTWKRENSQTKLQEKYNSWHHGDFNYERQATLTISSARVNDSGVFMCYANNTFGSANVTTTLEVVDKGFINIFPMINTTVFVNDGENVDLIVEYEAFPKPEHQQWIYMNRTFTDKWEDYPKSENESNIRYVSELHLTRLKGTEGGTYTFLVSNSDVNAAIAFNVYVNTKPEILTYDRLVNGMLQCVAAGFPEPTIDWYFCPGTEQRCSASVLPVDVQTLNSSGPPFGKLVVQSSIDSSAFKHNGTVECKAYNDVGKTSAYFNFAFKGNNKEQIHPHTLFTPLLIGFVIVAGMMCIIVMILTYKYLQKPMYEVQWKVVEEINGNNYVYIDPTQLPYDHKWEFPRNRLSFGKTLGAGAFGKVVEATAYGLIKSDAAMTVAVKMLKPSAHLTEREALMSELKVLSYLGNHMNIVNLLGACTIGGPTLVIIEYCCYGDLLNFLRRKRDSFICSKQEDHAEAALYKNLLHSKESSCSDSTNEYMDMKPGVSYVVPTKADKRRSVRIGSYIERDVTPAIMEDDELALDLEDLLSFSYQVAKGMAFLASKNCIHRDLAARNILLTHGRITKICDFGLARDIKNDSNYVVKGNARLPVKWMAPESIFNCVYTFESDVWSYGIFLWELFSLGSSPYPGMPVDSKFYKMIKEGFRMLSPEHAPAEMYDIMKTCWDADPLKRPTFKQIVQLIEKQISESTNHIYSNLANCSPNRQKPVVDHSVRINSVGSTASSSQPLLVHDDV
Method in brief: as §1

LYNa = molecular target: T11, LYNa (Homo sapiens, UniProt P07948); conditions: for inhibition at 0.1 µM: inhibitor concentration 0.1 μM
T11 construct: purchased Carna Biosciences
Method in brief: as §1

MAP2K1 = molecular target: T12, MAP2K1 (Homo sapiens, UniProt Q02750); conditions: for inhibition at 0.1 µM: inhibitor concentration 0.1 μM
T12 construct: purchased Carna Biosciences
Method in brief: as §1

MAP2K2 = molecular target: T13, MAP2K2 (Homo sapiens, UniProt P36507); conditions: for inhibition at 0.1 µM: inhibitor concentration 0.1 μM
T13 construct: purchased Carna Biosciences
Method in brief: as §1

MAP3K4 = molecular target: T14, MAP3K4 (Homo sapiens, UniProt Q9Y6R4); conditions: inhibitor concentration 0.1 μM
T14 construct: purchased Carna Biosciences
Method in brief: as §1

MLK1 = molecular target: T15, MLK1 (Homo sapiens, UniProt P80192); conditions: inhibitor concentration 0.1 μM
T15 construct: purchased Carna Biosciences
Method in brief: as §1

MNK1 = molecular target: T16, MNK1 (Homo sapiens, UniProt Q9BUB5); conditions: for inhibition at 0.1 µM: inhibitor concentration 0.1 μM
T16 construct: purchased Carna Biosciences
Method in brief: as §1

PDGFRα = molecular target: T17, PDGFRα (Homo sapiens, UniProt P16234); conditions: for inhibition at 0.1 µM: inhibitor concentration 0.1 μM
T17 construct: purchased Carna Biosciences
Method in brief: as §1

PIK3CA/PIK3R1 = molecular target: T18, PIK3CA/PIK3R1 (Homo sapiens, UniProt P42336); conditions: for inhibition at 0.1 µM: inhibitor concentration 0.1 μM
T18 construct: purchased Carna Biosciences
T18 sequence (P42336 whole entry): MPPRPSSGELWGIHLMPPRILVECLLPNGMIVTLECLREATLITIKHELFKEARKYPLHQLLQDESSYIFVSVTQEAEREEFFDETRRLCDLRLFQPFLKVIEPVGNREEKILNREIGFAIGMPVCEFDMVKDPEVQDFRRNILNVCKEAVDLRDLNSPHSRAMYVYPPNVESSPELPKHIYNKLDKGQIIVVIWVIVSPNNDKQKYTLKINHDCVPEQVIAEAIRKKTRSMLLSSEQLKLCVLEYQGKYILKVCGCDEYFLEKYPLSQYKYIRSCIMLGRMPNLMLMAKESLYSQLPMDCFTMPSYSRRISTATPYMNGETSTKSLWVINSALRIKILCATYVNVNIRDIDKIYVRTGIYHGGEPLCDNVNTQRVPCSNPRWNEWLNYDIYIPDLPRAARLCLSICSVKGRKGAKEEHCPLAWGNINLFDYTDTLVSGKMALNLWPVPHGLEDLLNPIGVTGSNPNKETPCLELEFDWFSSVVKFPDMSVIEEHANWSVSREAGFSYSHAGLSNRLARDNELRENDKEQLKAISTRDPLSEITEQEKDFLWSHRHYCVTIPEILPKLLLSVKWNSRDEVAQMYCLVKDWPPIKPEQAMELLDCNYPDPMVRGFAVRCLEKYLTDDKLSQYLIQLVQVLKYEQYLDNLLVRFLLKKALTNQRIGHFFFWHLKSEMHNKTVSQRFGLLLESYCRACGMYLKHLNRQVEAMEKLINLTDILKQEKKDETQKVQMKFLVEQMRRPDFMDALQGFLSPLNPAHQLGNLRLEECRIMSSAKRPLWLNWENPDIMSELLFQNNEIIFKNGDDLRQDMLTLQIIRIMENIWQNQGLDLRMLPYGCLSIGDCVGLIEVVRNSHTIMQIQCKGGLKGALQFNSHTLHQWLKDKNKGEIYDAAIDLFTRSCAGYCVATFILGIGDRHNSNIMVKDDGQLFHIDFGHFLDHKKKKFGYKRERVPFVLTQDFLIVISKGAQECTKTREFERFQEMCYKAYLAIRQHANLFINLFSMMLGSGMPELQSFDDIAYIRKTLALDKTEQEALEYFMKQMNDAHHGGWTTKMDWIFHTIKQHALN
T18 sequence (P27986 whole entry partner): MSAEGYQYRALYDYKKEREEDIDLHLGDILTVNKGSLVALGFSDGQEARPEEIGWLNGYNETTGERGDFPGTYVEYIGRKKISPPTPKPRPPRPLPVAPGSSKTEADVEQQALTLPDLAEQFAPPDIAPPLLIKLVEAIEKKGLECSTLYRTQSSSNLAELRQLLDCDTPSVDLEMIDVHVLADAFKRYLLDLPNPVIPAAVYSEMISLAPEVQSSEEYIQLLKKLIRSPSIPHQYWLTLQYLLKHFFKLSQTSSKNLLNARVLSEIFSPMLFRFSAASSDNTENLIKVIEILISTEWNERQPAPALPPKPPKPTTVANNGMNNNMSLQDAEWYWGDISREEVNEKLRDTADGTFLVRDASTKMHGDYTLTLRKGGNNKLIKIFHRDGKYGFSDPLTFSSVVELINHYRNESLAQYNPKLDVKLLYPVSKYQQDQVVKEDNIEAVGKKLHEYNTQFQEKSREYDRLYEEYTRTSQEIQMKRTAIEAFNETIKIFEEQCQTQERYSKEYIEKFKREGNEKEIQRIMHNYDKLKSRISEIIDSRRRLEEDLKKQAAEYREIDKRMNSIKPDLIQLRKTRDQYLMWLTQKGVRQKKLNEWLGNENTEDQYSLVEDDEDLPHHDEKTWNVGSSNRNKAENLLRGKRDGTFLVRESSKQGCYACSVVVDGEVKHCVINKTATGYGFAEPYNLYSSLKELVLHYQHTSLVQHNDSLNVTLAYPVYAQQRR
Method in brief: as §1

PIM2 = molecular target: T19, PIM2 (Homo sapiens, UniProt Q9P1W9); conditions: inhibitor concentration 0.1 μM
T19 construct: purchased Carna Biosciences
T19 sequence (Q9P1W9 whole entry): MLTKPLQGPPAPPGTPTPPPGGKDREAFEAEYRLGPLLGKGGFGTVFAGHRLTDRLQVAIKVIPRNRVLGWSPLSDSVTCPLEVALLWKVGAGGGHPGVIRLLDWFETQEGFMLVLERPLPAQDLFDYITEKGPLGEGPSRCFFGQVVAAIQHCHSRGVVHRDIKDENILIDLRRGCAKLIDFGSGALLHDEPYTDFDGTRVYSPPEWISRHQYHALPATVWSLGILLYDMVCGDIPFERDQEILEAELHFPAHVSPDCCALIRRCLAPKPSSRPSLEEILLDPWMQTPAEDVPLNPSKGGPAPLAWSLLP
Method in brief: as §1

ROS = molecular target: T20, ROS (Homo sapiens, UniProt P08922); conditions: inhibitor concentration 0.1 μM
T20 construct: purchased Carna Biosciences
Method in brief: as §1

SRC = molecular target: T21, SRC (Homo sapiens, UniProt P12931); conditions: for inhibition at 0.1 µM: inhibitor concentration 0.1 μM
T21 construct: purchased Carna Biosciences
T21 sequence (P12931 whole entry): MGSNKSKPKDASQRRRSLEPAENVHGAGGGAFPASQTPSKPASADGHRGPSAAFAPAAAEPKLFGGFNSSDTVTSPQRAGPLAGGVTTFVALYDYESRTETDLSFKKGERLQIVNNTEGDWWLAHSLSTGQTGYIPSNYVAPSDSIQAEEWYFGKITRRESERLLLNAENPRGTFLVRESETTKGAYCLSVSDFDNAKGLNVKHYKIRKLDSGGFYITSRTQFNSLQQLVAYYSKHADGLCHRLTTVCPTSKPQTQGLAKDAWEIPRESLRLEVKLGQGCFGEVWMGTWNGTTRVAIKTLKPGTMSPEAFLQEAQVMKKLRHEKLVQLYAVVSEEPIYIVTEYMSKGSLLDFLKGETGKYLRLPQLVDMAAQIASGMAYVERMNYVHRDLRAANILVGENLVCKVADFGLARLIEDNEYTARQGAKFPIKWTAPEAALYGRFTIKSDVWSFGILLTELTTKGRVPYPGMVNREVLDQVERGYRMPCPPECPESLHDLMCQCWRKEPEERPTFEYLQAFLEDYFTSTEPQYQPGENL
Method in brief: as §1

[1] = inhibitor concentration 0.01 μM, 0.01 µM
[2] = inhibitor concentration 0.01 μM

T1 sequence (P31749 whole entry): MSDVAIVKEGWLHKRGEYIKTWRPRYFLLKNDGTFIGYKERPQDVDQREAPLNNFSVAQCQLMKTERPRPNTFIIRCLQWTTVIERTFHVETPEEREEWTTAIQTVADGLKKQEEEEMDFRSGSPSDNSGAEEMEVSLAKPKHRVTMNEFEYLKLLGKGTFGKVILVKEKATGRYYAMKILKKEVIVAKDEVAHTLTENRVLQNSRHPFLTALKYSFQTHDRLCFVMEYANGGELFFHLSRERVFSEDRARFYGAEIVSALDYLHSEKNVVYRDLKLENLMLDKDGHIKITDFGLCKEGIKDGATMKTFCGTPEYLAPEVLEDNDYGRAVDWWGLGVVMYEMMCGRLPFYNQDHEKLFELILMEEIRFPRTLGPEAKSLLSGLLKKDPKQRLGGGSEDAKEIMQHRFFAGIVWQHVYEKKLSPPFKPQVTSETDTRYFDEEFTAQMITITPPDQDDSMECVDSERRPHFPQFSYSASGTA

Row | inhibition at 0.1 µM (AKT1) [%] | inhibition at 0.1 µM (AurA) [%] | inhibition at 0.1 µM (AurB) [%] | inhibition at 0.1 µM (Erk1) [%] | inhibition at 0.1 µM (Erk2) [%] | inhibition at 0.1 µM (FGFR3) [%] | inhibition at 0.1 µM (FGR) [%] | inhibition at 0.1 µM (FLT3) [%] | inhibition at 0.1 µM (HER4) [%] | inhibition at 0.1 µM (KIT(T670I)) [%] | inhibition at 0.1 µM (LYNa) [%] | inhibition at 0.1 µM (MAP2K1) [%] | inhibition at 0.1 µM (MAP2K2) [%] | inhibition at 0.1 µM (MAP3K4) [%] | inhibition at 0.1 µM (MLK1) [%] | inhibition at 0.1 µM (MNK1) [%] | inhibition at 0.1 µM (PDGFRα) [%] | inhibition at 0.1 µM (PIK3CA/PIK3R1) [%] | inhibition at 0.1 µM (PIM2) [%] | inhibition at 0.1 µM (SRC) [%] | Compound | other results
1 | < 30 | < 30 | < 30 | < 30 | < 30 | < 30 | < 30 | < 30 | < 30 | < 30 | < 30 | < 30 | < 30 | < 30 | < 30 | < 30 | < 30 | < 30 | < 30 | < 30 | O=C(c1c(F)ccc(NS(=O)(=O)CC(O)CO)c1F)c1c[nH]c2ncc(-c3ccc(Cl)cc3)cc12 (stereo not drawn) [200-73, N-[3-[5-(4-chlorophenyl)-lH-pyrrolo [2,3-b]pyridine-3-carbonyl]-2,4-difluorophenyl]-2,3-dihydroxypropane-l-sulfonamide] | inhibition at 0.1 µM (ROS): < 30%
2 | – | – | – | – | – | – | – | – | – | – | – | – | – | – | – | – | – | – | – | – | C/C=C/S(=O)(=O)Nc1ccc(F)c(C(=O)c2c[nH]c3ncc(-c4ccc(Cl)cc4)cc23)c1F [200-93b] | FGR inhibition (FGR; [1]): >20%; KIT(T670I) inhibition (KIT(T670I); [1]): <20%; PDGFRα inhibition (PDGFRα; [2]): >20%; SRC inhibition (SRC; [1]): <20%
3 | < 30 | < 30 | < 30 | < 30 | < 30 | < 30 | > 30 | < 30 | < 30 | < 30 | > 30 | < 30 | < 30 | < 30 | < 30 | < 30 | > 30 | < 30 | < 30 | < 30 | CC(=O)CS(=O)(=O)Nc1ccc(F)c(C(=O)c2c[nH]c3ncc(-c4ccc(Cl)cc4)cc23)c1F [200-117] | inhibition at 0.1 µM (ROS): < 30%
4 | – | – | – | – | – | – | > 50 | – | – | – | > 50 | – | – | – | – | – | > 50 | – | – | > 50 | O=C(c1c(F)ccc(NS(=O)(=O)CCCO)c1F)c1c[nH]c2ncc(-c3ccc(Cl)cc3)cc12 [200-17, N-[3-[5-(4-chlorophenyl)-1H-pyrrolo[2,3-b]pyridine-3-carbonyl]-2,4-difluorophenyl]-3-hydroxypropane-1-sulfonamide] | inhibition at 1 µM (AurA; inhibitor concentration 1 μM): > 50%; inhibition at 1 µM (Erk1; inhibitor concentration 1 μM): < 50%; inhibition at 1 µM (Erk2; inhibitor concentration 1 μM): < 50%; inhibition at 1 µM (FGFR3; inhibitor concentration 1 μM): > 50%; inhibition at 0.01 µM (FGR; [2]): > 30%; inhibition at 1 µM (FGR; inhibitor concentration 1 μM): > 50%; inhibition at 1 µM (FLT3; inhibitor concentration 1 μM): > 50%; inhibition at 1 µM (HER4; inhibitor concentration 1 μM): > 50%; inhibition at 1 µM (KIT(T670I); inhibitor concentration 1 μM): < 50%; inhibition at 0.01 µM (LYNa; [2]): < 30%; inhibition at 1 µM (LYNa; inhibitor concentration 1 μM): > 50%; inhibition at 1 µM (MAP2K1; inhibitor concentration 1 μM): < 50%; inhibition at 1 µM (MAP2K2; inhibitor concentration 1 μM): < 50%; inhibition at 1 µM (MNK1; inhibitor concentration 1 μM): > 50%; inhibition at 0.01 µM (PDGFRα; [2]): < 30%; inhibition at 1 µM (PDGFRα; inhibitor concentration 1 μM): > 50%; inhibition at 1 µM (PIK3CA/PIK3R1; inhibitor concentration 1 μM): > 50%; inhibition at 0.01 µM (SRC; [2]): < 30%; inhibition at 1 µM (SRC; inhibitor concentration 1 μM): > 50%

Row | Compound | inhibition at 0.1 µM (AKT1) [%] | inhibition at 0.1 µM (AurA) [%] | inhibition at 0.1 µM (AurB) [%] | inhibition at 0.1 µM (Erk1) [%] | inhibition at 0.1 µM (Erk2) [%] | inhibition at 0.1 µM (FGFR3) [%] | inhibition at 0.1 µM (FGR) [%] | inhibition at 0.1 µM (FLT3) [%] | inhibition at 0.1 µM (HER4) [%] | inhibition at 0.1 µM (KIT(T670I)) [%] | inhibition at 0.1 µM (LYNa) [%] | inhibition at 0.1 µM (MAP2K1) [%] | inhibition at 0.1 µM (MAP2K2) [%] | inhibition at 0.1 µM (MAP3K4) [%] | inhibition at 0.1 µM (MLK1) [%] | inhibition at 0.1 µM (MNK1) [%] | inhibition at 0.1 µM (PDGFRα) [%] | inhibition at 0.1 µM (PIK3CA/PIK3R1) [%] | inhibition at 0.1 µM (PIM2) [%] | inhibition at 0.1 µM (SRC) [%] | other results
5 | CC(O)CS(=O)(=O)Nc1ccc(F)c(C(=O)c2c[nH]c3ncc(-c4ccc(Cl)cc4)cc23)c1F (stereo not drawn) [200-115] | < 30 | < 30 | < 30 | < 30 | < 30 | < 30 | > 30 | < 30 | < 30 | < 30 | < 30 | < 30 | < 30 | < 30 | < 30 | < 30 | > 30 | < 30 | < 30 | < 30 | inhibition at 0.1 µM (ROS): < 30%
